Test results: patent US7083959B2, “Therapeutic suppression of specific immune responses by administration of oligomeric forms of antigen of controlled chemistry” (The Johns Hopkins University, priority 1983, dated 2006)
Where no end group is shown, it is not given here.

Assays:
CAF1/J mice = assay: Immunogenicity of monomeric and polymerized BSA or OVA without adjuvant, serum ELISA; format: in vivo; details: for serum anti-BSA IgM response: day 6, injected in saline without adjuvant, FIG. 40; for IgM and IgG anti-protein responses: administered without adjuvant
Experimental: The molecular weight for each fraction was then determined by the use of the Model E analytical ultracentrifuge under equilibrium conditions. During this prolonged series of slow fractionation steps, molecules which were unstable to any of the many steps involved in processing, handling, or storage were fractionated away from the samples, yielding a series of preparations, each of which contained a relatively narrow range of molecular sizes of substantial time stability. These water soluble preparations were then injected into mice intra-peritoneally, without the use of any adjuvant, in order to determine their relative immunogenicity. The level of immune response was determined by measuring serum IgM or IgG antibody levels against BSA or OVA by standard solid state ELISA technique.

anti-104 antibodies = assay: Share of anti-104 antibodies directed against 159, direct binding ELISA and competition assay; design: species or system mice
Source text: However this peptide can be recognized by B cells since BSA conjugates raise good antibody responses to 159. Furthermore, as mentioned above, a substantial portion of antibodies raised by the 104-conjugates are directed against 159 as indicated both by direct binding in ELISA assay and by competition assay using free 159 to inhibit binding of anti-104 antibodies to 104-gelatin.

[1] = system: Sera obtained from (NZBxNZW) F1 mice; assay: Epitope mapping: binding of lupus mouse sera to histone H2B peptides
Source text: This identification process, referred to herein as “epitope mapping”, involves the synthesis of various overlapping peptide fragments which are subsequently analyzed to establish regions of antigenicity. Clearly, the study of the entire H2B structure (125 amino acids) would require a very large amount of peptide synthesis. However, it is known from studies of SLE patients and mice with lupus-like disease that removal of the H2B N-terminal region with trypsin results in a loss of antigenicity (Portanova, J. P., et. al., J. Immunol. 38, 446–457, (1987)). Attention was, therefore, focussed on the synthesis of peptides derived from this region of histone H2B.

BSA 70-mer: soluble highly polymerized BSA containing 70 BSA monomers, carbodiimide cross-linked (5000 kD)
serum anti-BSA IgM response (CAF1/J mice): capable of raising IgM antibodies even at very low doses

N-Ac-Cys-(ε-ACA)-Glu-Ala-His^331-Ala-Glu-Ile-Asn-Glu-Ala-Gly-Arg^339-CONH2 ({Ac-Cys-ε‑ACA}-EAHAEINEAGR-NH2; listed as Mus musculus) [compound 159, represents residues 331–339 of chicken ovalbumin (OVA)]
share of antibody response to 104 attributed to 159 (anti-104 antibodies; 104 arrayed on dextran or BSA): 40–50%
share of 104 response competed with soluble 159 (anti-104 antibodies; solution phase competition assays (data not shown)): up to 40%

N-Acetyl-Ala-Pro-Lys-Lys-Gly-Ser-Lys-Lys-Ala-Val-Thr-Lys-Ala-Gln-Lys-Cys-CONH2 (Ac-APKKGSKKAVTKAQKC-NH2) [Lupus 4′]
binding of sera to peptide [1]: not

N-Acetyl-Cys-Ala-Pro-Lys-Lys-Gly-Ser-Lys-Lys-Ala-Val-Thr-Lys-Ala-Gln-Lys-CONH2 (Ac-CAPKKGSKKAVTKAQK-NH2) [Lupus 3′]
binding of sera to peptide [1]: not

N-Acetyl-Cys-Lys-Ala-Val-Thr-Lys-Ala-Gln-Lys-Lys-Asp-Gly-Lys-Lys-Arg-Lys-CONH2 (Ac-CKAVTKAQKKDGKKRK-NH2) [Lupus 5′]
binding of sera to peptide [1]: not

Polymeric BSA: BSA polymerized to itself through a water soluble carbodiimide, size fractionated
IgM and IgG anti-protein responses (CAF1/J mice): considerable

Pro-Glu-Pro-Ala-Lys-Ser-Ala-Pro-Ala-Pro-Lys-Lys-Gly-Ser-Lys-Cys-CONH2 (PEPAKSAPAPKKGSKC-NH2) [Lupus 2′]
binding of sera to peptide [1]: bind strongly

monomeric BSA: monomeric (68 kD) bovine serum albumin [reference compound]
serum anti-BSA IgM response (CAF1/J mice): requires substantially higher doses
anti-BSA IgG response (CAF1/J mice; repeated injections in saline at doses up to 100 μg, FIG. 43): not very effective

B1: Polymeric OVA: OVA polymerized to itself by glutaraldehyde, size fractionated (protein, UniProt P01012 2-386, looked up)
Ovalbumin: GSIGAASMEFCFDVFKELKVHHANENIFYCPIAIMSALAMVYLGAKDSTRTQINKVVRFDKLPGFGDSIEAQCGTSVNVHSSLRDILNQITKPNDVYSFSLASRLYAEERYPILPEYLQCVKELYRGGLEPINFQTAADQARELINSWVESQTNGIIRNVLQPSSVDSQTAMVLVNAIVFKGLWEKAFKDEDTQAMPFRVTEQESKPVQMMYQIGLFRVASMASEKMKILELPFASGTMSMLVLLPDEVSGLEQLESIINFEKLTEWTSSNVMEERKIKVYLPRMKMEEKYNLTSVLMAMGITDVFSSSANLSGISSAESLKISQAVHAAHAEINEAGREVVGSAEAGVDAASVSEEFRADHPFLFCIKHIATNAVLFFGRCVSP
modifications: glutaraldehyde self-polymerized
notes: OVA polymerized to itself by glutaraldehyde, size fractionated
IgM and IgG anti-protein responses (CAF1/J mice): considerable
